Assay results as given in BindingDB's records for PubMed 9190866 (Smithkline Beecham Pharmaceuticals, 1997).
Where a SMILES comes first, the peptide text is derived from it. [ ]: non-standard residue; d: D form. NMeF = CN[C@@H](Cc1ccccc1)C(=O)O

Key:
Substance-K receptor = target: T1, Substance-K receptor (Homo sapiens, UniProt P21452)
T1 sequence (P21452 whole entry): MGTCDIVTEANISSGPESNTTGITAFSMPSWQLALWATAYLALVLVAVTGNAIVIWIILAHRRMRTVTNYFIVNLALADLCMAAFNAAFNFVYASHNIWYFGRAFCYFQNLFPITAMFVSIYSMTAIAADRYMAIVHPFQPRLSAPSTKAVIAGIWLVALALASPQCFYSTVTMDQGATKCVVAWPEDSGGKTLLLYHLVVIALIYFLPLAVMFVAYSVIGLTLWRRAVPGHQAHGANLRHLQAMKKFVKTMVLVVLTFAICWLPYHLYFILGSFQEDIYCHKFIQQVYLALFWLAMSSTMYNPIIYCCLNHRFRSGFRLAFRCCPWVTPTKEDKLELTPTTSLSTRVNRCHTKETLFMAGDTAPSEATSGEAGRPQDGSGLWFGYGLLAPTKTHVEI

Neuromedin-K receptor = target: T2, Neuromedin-K receptor (Homo sapiens, UniProt P29371)
T2 sequence (P29371 whole entry): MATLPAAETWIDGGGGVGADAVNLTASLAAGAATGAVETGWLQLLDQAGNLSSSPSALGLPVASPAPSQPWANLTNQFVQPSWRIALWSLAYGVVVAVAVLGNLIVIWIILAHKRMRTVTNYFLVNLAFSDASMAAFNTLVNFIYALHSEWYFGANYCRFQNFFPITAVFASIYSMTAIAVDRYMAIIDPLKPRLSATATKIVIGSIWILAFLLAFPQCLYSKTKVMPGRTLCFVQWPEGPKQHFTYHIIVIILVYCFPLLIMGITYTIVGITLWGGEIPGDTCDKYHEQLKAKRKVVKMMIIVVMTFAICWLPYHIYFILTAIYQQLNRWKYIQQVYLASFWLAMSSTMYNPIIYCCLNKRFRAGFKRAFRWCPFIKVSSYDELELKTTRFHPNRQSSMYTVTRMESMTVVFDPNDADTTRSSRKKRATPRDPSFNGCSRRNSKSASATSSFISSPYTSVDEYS

Substance-P receptor = Substance-P receptor (Homo sapiens, UniProt P25103)
Sequence of Substance-P receptor (P25103 whole entry): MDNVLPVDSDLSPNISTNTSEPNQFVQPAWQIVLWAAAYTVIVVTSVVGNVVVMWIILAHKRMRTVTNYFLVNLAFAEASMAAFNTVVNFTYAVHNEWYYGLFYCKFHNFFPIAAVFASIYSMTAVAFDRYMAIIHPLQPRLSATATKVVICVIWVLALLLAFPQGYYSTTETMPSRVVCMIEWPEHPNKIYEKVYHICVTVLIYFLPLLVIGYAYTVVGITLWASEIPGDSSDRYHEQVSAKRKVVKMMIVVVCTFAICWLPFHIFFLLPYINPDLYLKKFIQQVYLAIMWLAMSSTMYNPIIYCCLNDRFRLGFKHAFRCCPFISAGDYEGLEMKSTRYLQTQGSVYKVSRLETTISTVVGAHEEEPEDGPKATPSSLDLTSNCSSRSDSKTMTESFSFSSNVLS

Ki (Substance-K receptor) [nM]	Ki (Neuromedin-K receptor) [nM]	Ki (Substance-P receptor) [nM]	SMILES
> 10000	> 10000	–	COc1ccccc1CN[C@H]1CCCN[C@H]1c1ccccc1 [(+/-)(2-Methoxy-benzyl)-(2-phenyl-piperidin-3-yl)-amine]
–	0.31	> 10000	CSCC[C@H](NC(=O)[C@H](CC(C)C)NC(=O)CNC(=O)[C@H](Cc1ccccc1)N(C)C(=O)[C@H](Cc1ccccc1)NC(=O)[C@H](Cc1ccccc1)NC(=O)[C@H](CC(=O)O)NC(=O)[C@H](Cc1cnc[nH]1)NC(=O)[C@H](CCSC)NC(=O)[C@@H](N)CC(=O)O)C(N)=O [NKB [MePhe7]] (H-DMHDFF[NMeF]GLM-NH2)
16.5	–	–	CSCC[C@H](NC(=O)[C@H](CC(C)C)NC(=O)CNC(=O)[C@@H](NC(=O)[C@H](Cc1ccccc1)NC(=O)[C@H](Cc1ccccc1)NC(=O)[C@H](CC(=O)O)NC(=O)[C@H](Cc1c[nH]cn1)NC(=O)[C@H](CCSC)NC(=O)[C@@H](N)CC(=O)O)C(C)C)C(N)=O [NSC_5311312]
0.23	707	454	CC(=O)NC1(c2ccccc2)CCN(CCC(CN(C)C(=O)c2ccccc2)c2ccc(Cl)c(Cl)c2)CC1 (stereo not drawn) [SR 48968]
